We go through seven compounds from patent US11504368B2, “2,6-diamino-3,4-dihydropyrimidin-4-one derivatives and use thereof in therapy” (THOMAS HELLEDAYS STIFTELSE FÖR MEDICINSK FORSKNING, priority 2018, dated 2022).

Broadly, the IC50 is the point on the concentration scale where inhibition reaches its midpoint.

For test [1], the system named is colorectal cancer patient-derived xenograft. Conditions: colorectal cancer patient-derived xenograft mouse models; Ju et al. (2019); cited from earlier work. In general terms: Xenograft models place foreign cells or tissue in a host animal.
Test [2] has as its target T1, MTHFD2 (Homo sapiens (Human), UniProt P13995). To be noted: Fu et al. Nat. Commun. (2017); cited from earlier work.
The target of test [3] is T1, MTHFD2. In words: Inhibition of MTHFD2 (NAD(P)H-Glo luminescence). It counts as biochemical. Conditions: 3.4 nmol/L MTHFD2, 5 μmol/L folitixorin, 250 μmol/L NAD+; mean of at least 3 independent measurements. On the procedure: DMSO was used as negative control. The serial dilution in DMSO, from compound DMSO stock solution, was created by dispensing from a 384-well low dead volume microplate (LP-0200, Labcyte) and a 384-well polypropylene microplate 2.0 (PP-0200, Labcyte). A total of 2.5 μL MTHFD2 was preincubated with compound or DMSO for 10 min. The enzymatic reaction was initiated by adding 2.5 μL folitixorin (F680350, Toronto Research Chemicals). For background control, 5 μL buffer was added to the well. […] The final concentrations of all reagents in a total assay volume of 5 μL per well were 50 mmol/L Tris-HCl at pH 8.0, 100 mmol/L NaCl, 5 mmol/L MgCl2, 25 mmol/L Na3PO4 at pH 8.0, 0.005% (v/v) Tween-20, and 2 mmol/L 2-mercaptoethanol. After 15 min reaction time, 5 μL NAD(P)H-Glo detection reagent (G9061 or G9062, Promega) was dispensed in all wells and the plate was incubated for 60 min. Luminescence was measured on a plate reader (Envision, PerkinElmer or Sense, Hidex). The light signal produced is proportional to the amount of NAD(P)H in the sample. IC50 values were determined by fitting a four parameter sigmoidal curve model using XLfit (IDBS). Reported IC50 values are the mean of at least 3 independent measurements.

A further test relates to HL-60 cells. In words: Cancer cell viability assay (HL-60, resazurin). It counts as cell-based. Conditions: Homo sapiens, 96 h, mean of at least 3 independent measurements, read-out: HL60 cell proliferation inhibition EC50. On the procedure: HL-60 cells (human promyelocytic leukemia cells) were seeded in a 384-well plate at a density of 2,000 cells per well in 50 μL induction medium and treated with vehicle (DMSO) or an 11-point concentration range with 3-fold dilution in concentration of compound. Each assay point was run in duplicate. Wells without cells but with DMSO were used as negative controls. The cells were left to proliferate over a period of 96 h, in an incubator at 37° C. and 5% CO2, followed by an addition of 10 μL […] resazurin sodium salt (199303, Sigma-Aldrich) dissolved in DPBS (14190, Gibco). After 4 h of incubation at 37° C. and 5% CO2, the fluorescent signal was measured using an excitation wavelength of 544 nm and an emission wavelength of 595 nm in a Hidex Sense plate reader. Cell plates were incubated in boxes with damp paper tissues to avoid evaporation. All additions, except compound and DMSO, were done using the Multidrop Combi (Thermo Fisher Scientific). DMSO and compounds were pre-dispensed with an Echo 550 Liquid handler (Labcyte) in black, clear bottom, TC-treated and sterile 384-well plates (3764, Corning). Growth medium consisted of RPMI 1640 GlutaMAX (61870, Gibco), 10% (v/v) FBS (10500, Gibco), and 1% (v/v) P/S (15070, Gibco). Induction medium consisted of RPMI 1640 GlutaMAX (61870, Gibco), 5% (v/v) FBS (10500, Gibco), and 1% (v/v) P/S (15070, Gibco). EC50 values were determined by fitting a four parameter sigmoidal curve model using XLfit (IDBS). Reported EC50 values are the mean of at least 3 independent measurements.
(The colour change of resazurin is a common sign of viable cells or microbes.)

T1 sequence (P13995 36-350): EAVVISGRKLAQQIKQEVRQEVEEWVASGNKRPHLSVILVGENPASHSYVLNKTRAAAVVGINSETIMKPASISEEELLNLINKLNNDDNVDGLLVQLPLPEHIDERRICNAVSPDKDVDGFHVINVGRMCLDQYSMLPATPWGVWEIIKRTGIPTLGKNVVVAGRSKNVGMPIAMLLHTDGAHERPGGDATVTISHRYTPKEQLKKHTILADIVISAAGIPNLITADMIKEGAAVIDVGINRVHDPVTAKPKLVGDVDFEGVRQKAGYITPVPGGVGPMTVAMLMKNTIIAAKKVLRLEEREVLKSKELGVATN

Regarding `Nc1nc2c(c(=O)[nH]1)N1C(=O)N(c3ccc(C(=O)N[C@@H](CCC(=O)O)C(=O)O)cc3)CC1CN2` (stereo partly shown) [LY345899], in test [1], the tumor growth result was “statistically significantly suppresses tumor growth” and the tumor weight entry is “decreases tumor weight”. With `CO[C@H](CC(=O)O)[C@@H](C)C(=O)[C@H](C)/C=C(\C)[C@H]1OC(=O)[C@H](O)[C@H](O)/C=C/[C@H](C)CCC[C@@H]1C` [carolacton], the “inhibitor of human MTHFD2” value at MTHFD2 [2] is reported as “nanomolar inhibitor”. In turn, `Nc1nc(N)c(CC(=O)Nc2ccc(C(=O)N[C@@H](Cc3ccccc3)C(=O)O)nc2)c(=O)[nH]1` [Example 8, (2S)-2-({5-[2-(2,4-diamino-6-oxo-1,6-dihydropyrimidin-5-yl)acetamido]pyridin-2-yl}formamido)-3-phenylpropanoic acid] had an IC50 against MTHFD2 [3] of 312 nM. For the same compound, the EC50 in the test on HL-60 cells was found to be 62 nM. Compound `Nc1nc(N)c(CC(=O)Nc2ccc(C(=O)N[C@@H](CCC(=O)O)C(=O)O)nc2Oc2ccccc2)c(=O)[nH]1` [Example 26, (2S)-2-((5-[2-(2,4-diamino-6-oxo-1,6-dihydropyrimidin-5-yl)acetamido]-6-phenoxypyridin-2-yl)formamido)pentanedioic acid] gave an IC50 against MTHFD2 [3] of 14 nM. The EC50 in the test with HL-60 cells is 6190 nM. As for `Nc1nc(N)c(NC(=O)Nc2ccc(C(=O)N[C@H](C(=O)O)C3CCCCC3)nc2)c(=O)[nH]1` [Example 12, (2S)-2-cyclohexyl-2-[(5-{[(2,4-diamino-6-oxo-1,6-dihydropyrimidin-5-yl)carbamoyl]amino}pyridin-2-yl)formamido]acetic acid], 17 nM corresponded to half-maximal inhibition against MTHFD2 [3] (IC50). Also, in the test with HL-60 cells, the EC50 was found to be 7 nM.

For the compound `Nc1nc(N)c(CC(=O)Nc2cnc(C(=O)N[C@@H](Cc3ccccc3)C(=O)O)c(F)c2)c(=O)[nH]1` [Example 33, (2S)-2-((5-[2-(2,4-diamino-6-oxo-1,6-dihydropyrimidin-5-yl)acetamido]-3-fluoropyridin-2-yl)formamido)-3-phenylpropanoic acid], on MTHFD2 [3], the IC50 was 92 nM. In addition, in the test with HL-60 cells, the EC50 was 24 nM. Regarding `Nc1nc(N)c(CC(=O)Nc2ccc(C(=O)N[C@@H](CCc3nnn[nH]3)C(=O)O)nc2)c(=O)[nH]1` [Example 9, (2S)-2-((5-[2-(2,4-diamino-6-oxo-1,6-dihydropyrimidin-5-yl)acetamido]pyridin-2-yl)formamido)-4-(1H-1,2,3,4-tetrazol-5-yl)butanoic acid], inhibition against MTHFD2 [3] was half-maximal at 53 nM (IC50). Besides, in the test with HL-60 cells, the EC50 was determined as 35 nM.
